Like-named read-outs stand apart in the source and are kept apart here.
What was measured:
A2780 cells [1] = assay: Apoptosis, Annexin V/propidium iodide flow cytometry; type: cell-based, human; conditions: A2780, cisplatin 15 μM, 24 h, Annexin V/PI
Method: (§1) The A2780 ovarian carcinoma cell line was received from Merck (reference 93112519–1VL) and cultured at 37 °C in an environment with 5% CO2. The cultivation was carried out in complete cell culture medium (RPMI-1640 medium, Merck), which was supplemented with 10% fetal bovine serum (FBS, Merck), 1% L-glutamine (Merck) and 1% penicillin–streptomycin–neomycin (PSN, Merck). For the flow cytometry experiments, three independent duplicates were analyzed using a BD FACSVerse flow cytometer (Becton Dickinson, USA). At least 5 × 10^3 events were recorded for each sample. The same procedure was replicated for the experiments described below. Solutions of the complexes were formulated using the stock solutions (Section 5.1).
Apoptosis assay was performed using an Annexin V-FITC/PI commercial kit (V13242, Thermo Fisher Scientific, USA), while caspase 3/7 activation assay was performed with a CellEvent Caspase-3/7 Green Flow Cytometry Assay Kit (C10427, Thermo Fisher Scientific, USA). A2780 cells were seeded in 24-well plates at a density of 5 × 10^4 cells per well; after 24 h, the cells were exposed to 4 μM solution of the selected complex for 24 h. […] The supernatant was collected, cells were washed with PBS (0.1 M, pH 7.4), and trypsin was added (0.25% trypsin-EDTA, GibcoTM). Finally, complete cell culture medium was added to stop the trypsinization, and a final volume of 500 μL was divided into two 250 μL aliquots, following the protocol provided by the manufacturer. Samples were centrifuged, treated with the respective buffers, and then incubated in the dark at room temperature for 10 min (Annexin V-FITC/PI) or at 37 °C for 30 min (CellEventTM Caspase-3/7 Green Detection Reagent).

A2780 cells [2] = assay: Autophagy analysis (CYTO-ID); type: cell-based, human; conditions: A2780, complexes 4 μM, cisplatin 15 μM, 24 h
Method: as §1
The potential induction of autophagy by 3a and 3b in A2780 cells was studied with the kit CYTO-ID Autophagy Detection 2.0 (from Enzo Life Sciences, USA), following the protocol provided by the manufacturer. […] The supernatant was collected, cells were washed with warm PBS, detached using 0.25% trypsin-EDTA (Gibco) and resuspended in a cell culture medium. Diluted CYTO-ID Green stain solution (according to the protocol) was used to stain the samples. Following incubation for 30 min in a light-protected environment, the samples were washed with PBS (phosphate-buffered saline). Subsequently, a flow cytometry experiment was conducted. A mixture of chloroquine (10 μM) and rapamycin (0.5 μM) was used as positive control.

[3] = tested on: HeLa human cervical carcinoma cell line; assay: MTT in vitro cytotoxicity, HeLa; type: cell-based; conditions: incubation 24 h, mean ± SD
Method: (§2) The cytotoxicity assessment was conducted on various human cancer cell lines, including A2780 ovarian carcinoma, A2780R cisplatin-resistant ovarian carcinoma, MCF-7 breast, HOS osteosarcoma, A549 epithelial lung, PANC-1 pancreatic, Caco-2 colorectal, PC-3 prostate adenocarcinoma, and HeLa cervical cell lines. Additionally, the assessment extended to a normal human fetal fibroblast cell line (MRC-5). Cells were obtained from ATCC collection and cultivated according to the producer’s instructions. Stock solutions of the compounds were prepared in DMF immediately before application, and diluted with H2O to achieve the final concentration of 0.1% v/v DMF.[99] The culture media were enriched with 10% fetal calf serum. Subsequently, the cells were exposed to the tested compounds, vehicle (0.1% v/v DMF) and Triton X-100 (1% v/v), during incubation. The conventional MTT assay was carried out following different incubation periods (Tables 5-6). The absorbance was measured at 570 nm by using a spectrophotometer (Infinite M200, Schoeller Instruments, Prague, Czech Republic). The obtained data are presented as the percentage of cell viability with 100% representing negative control treatment (0.1% v/v DMF) and 0% representing the positive control (Triton X-100). The half-maximal inhibitory concentrations (IC50) were determined from dose–response curves using GraphPad Prism 6 software (GraphPad Software, San Diego, USA).

[4] = tested on: PANC-1 human pancreatic carcinoma cell line; assay: MTT in vitro cytotoxicity, PANC-1; type: cell-based; conditions: incubation 24 h, mean ± SD
Method: as §2

[5] = tested on: A549 human lung adenocarcinoma cell line; assay: MTT in vitro cytotoxicity, A549; type: cell-based; conditions: incubation 24 h, mean ± SD
Method: as §2

[6] = tested on: MRC-5 normal human lung fibroblast cell line; assay: MTT in vitro cytotoxicity, MRC-5 (selectivity); type: cell-based; conditions: normal cells, MTT, incubation 24 h, mean ± SD
Method: as §2

[7] = tested on: A2780R cisplatin-resistant human ovarian carcinoma cell line; assay: MTT in vitro cytotoxicity, A2780R; type: cell-based; conditions: incubation 24 h, mean ± SD
Method: as §2

[8] = tested on: MCF-7 breast adenocarcinoma cell line; assay: MTT in vitro cytotoxicity, MCF-7; type: cell-based, human; conditions: incubation 24 h, mean ± SD
Method: as §2

[9] = tested on: HOS human osteosarcoma cell line; assay: MTT in vitro cytotoxicity, HOS; type: cell-based; conditions: incubation 24 h, mean ± SD
Method: as §2

[10] = tested on: PC-3 human prostate carcinoma cell line; assay: MTT in vitro cytotoxicity, PC-3; type: cell-based; conditions: incubation 24 h, mean ± SD
Method: as §2

A2780 cells [11] = assay: Mitochondrial membrane potential analysis (MITO-ID); type: cell-based, human; conditions: A2780, complexes 4 μM, cisplatin 15 μM, 24 h
Method: as §1
To investigate the effects on mitochondrial membrane potential of A2780 cells, an MITO-ID Membrane potential detection kit (Enzo Life Sciences, USA) was used. Cells were seeded in a 24-well (5 × 10^4 cells/well), and then incubated with 4 μM solution of complexes for 24 h. The supernatant was collected, cells were washed with warm PBS, detached using 0.25% trypsin-EDTA (Gibco) and resuspended in a cell culture medium. Then, samples were stained with diluted MITO-ID MP Detection Reagent (according to the protocol) at RT for 15 min, prior to flow cytometry analysis. A positive control was established by treating the samples with 2 μM carbonyl cyanide 3-chlorophenylhydrazone.

[12] = Stability in DMEM/CH3OH solution (UV–vis); type: physicochemical; conditions: ca. 5:1 v/v
Method: (§3) […] The percentage of remaining complex in the solution was calculated by considering the change in absorbance at the characteristic wavelength. The identical procedure was employed to evaluate stability in MeOH and DMEM (about 1:5 v/v) solutions. DMEM stands for the cell culture medium (containing 1000 mg/L glucose and L-glutamine, excluding sodium bicarbonate and phenol red; reference D2902-Merck).

[13] = tested on: Caco-2 human colorectal adenocarcinoma cell line; assay: MTT in vitro cytotoxicity, Caco-2; type: cell-based; conditions: incubation 24 h, mean ± SD
Method: as §2, with “Additionally,” for “The cytotoxicity assessment was conducted on various human cancer cell lines, including A2780 ovarian carcinoma, A2780R cisplatin-resistant ovarian carcinoma, MCF-7 breast, HOS osteosarcoma, A549 epithelial lung, PANC-1 pancreatic, Caco-2 colorectal, PC-3 prostate adenocarcinoma, and HeLa cervical cell lines. Additionally,”

[14] = tested on: A2780 human ovarian carcinoma cell line; assay: MTT in vitro cytotoxicity, A2780; type: cell-based
Method: as §2

[15] = Stability in H2O/CH3OH solution (UV–vis); type: physicochemical; conditions: ca. 5:1 v/v
Method: as §3

[16] = Octanol/water partition coefficient, shake-flask with UV–vis; type: physicochemical; conditions: 21 °C
Method: Partition coefficients (Pow), defined by the formula Pow = corg/caq, wherein corg and caq denote the molar concentrations of the specific compound in octanol and aqueous phases, respectively, were obtained using the shake-flask method with UV–vis measurements, following a previously described procedure (Table 3).[98] All the operations were carried out at 21 ± 1 °C. The wavelength corresponding to the maximum absorption of each compound within the range 350–430 nm was employed for quantifying using UV–vis techniques.

[17] = Cyclic voltammetry in CH2Cl2/[N^nBu4]PF6; type: physicochemical; conditions: CH2Cl2/[N^nBu4]PF6 0.2 M
Method: Cyclic voltammetry measurements were conducted by using a PalmSens4 instrument connected to a computer operating with the PSTrace5 electrochemical software. Prior to use, anhydrous CH2Cl2 (Merck) was stored under argon over 3 Å molecular sieves. Both [N^nBu4]PF6 (electrochemical grade) and FeCp2, obtained from Fluka, were utilized without requiring additional purification. Cyclic voltammetries were carried out under argon by utilizing a 0.2 M solution of [N^nBu4]PF6 in CH2Cl2 as the supporting electrolyte. The working electrode and the counter electrode were comprised of a platinum disk and a platinum gauze, respectively, both enclosed within a glass tube. A leakage-free miniature electrode of Ag/AgCl/KCl (from eDAQ) was employed as a reference. The three-electrode designed cell was subjected to predrying via vacuum heating and then filled with argon gas. The Schlenk-type design of the cell was effective in upholding both anhydrous and anaerobic conditions. Subsequently, a solution of supporting electrolyte, prepared under argon, was introduced into the cell, and the CV of the solvent was acquired. Afterward, the analyte was introduced, and voltammograms were recorded. Under the selected experimental conditions, the one-electron oxidation of ferrocene occurred at a standard potential of E° = +0.45 V relative to Ag/AgCl/KCl.

[18] = vs Ag/AgCl/KCl, peak potential of irreversible process

| SMILES | IC50 [3] | IC50 [4] | IC50 [5] | IC50 [6] | IC50 [7] | IC50 [8] | IC50 [9] | IC50 [10] | residual complex % in H2O/CH3OH ([15]; 2 h) | residual complex % in H2O/CH3OH ([15]; 18 h) | Log Pow [16] | also measured |
| --- | --- | --- | --- | --- | --- | --- | --- | --- | --- | --- | --- | --- |
| N.N.[Cl][Pt][Cl] [cisplatin, reference compound] | 30.7 ± 0.6 µM | > 50 µM | 39.2 ± 3.1 µM | > 50 µM | 40 ± 3.9 µM | 28.4 ± 2.7 µM | 26.3 ± 3.3 µM | > 50 µM | – | – | – | cells with apoptotic changes (A2780 cells [1]): ca. 40 % of the cells; autophagy level (in words) (A2780 cells [2]): significantly enhanced; cell count with damaged mitochondrial membranes (in words) (A2780 cells [11]): notable augmentation |
| CC12CCC3C(CCC4=CC(=O)CCC43C)C1CCC2=C=[CH][Ru]1(=[C]=O)([CH]2C=CC=C2)[C](=O)[Ru+]1(=[C]=O)[CH]1C=CC=C1.F[B-](F)(F)F (mixture of isomers) [3c, [Ru2Cp2(CO)3{μ–η^1:η^2-CH=C=(testosteronylidene)}]BF4] | 16.3 ± 1.3 µM | 30 ± 0.6 µM | 20.7 ± 1.4 µM | 21.5 ± 4 µM | 11.7 ± 2.4 µM | 22 ± 4 µM | 17.7 ± 2.8 µM | 19.6 ± 3.7 µM | 94% | 73% | 0.89 ± 0.12 | residual complex % in DMEM/CH3OH ([12]; 2 h): 89%; residual complex % in DMEM/CH3OH ([12]; 18 h): 67%; IC50 [13]: 42.8 ± 0.8 µM; IC50 ([14]; MTT, incubation 24 h, mean ± SD (Table 5), read-out: IC50 A2780): 6.3 ± 1.3 µM; IC50 ([14]; time-course experiment (Table 6), 24 h, mean ± SD, read-out: IC50 A2780, incubation time 24 h): 4.7 ± 1 µM; IC50 ([14]; time-course experiment (Table 6), 48 h, mean ± SD, read-out: IC50 A2780, incubation time 48 h): 5.1 ± 0.7 µM; IC50 ([14]; time-course experiment (Table 6), 72 h, mean ± SD, read-out: IC50 A2780, incubation time 72 h): 6.8 ± 1.3 µM |
| O=[C]=[Ru]12([CH]3C=CC=C3)[CH]=C(C3(O)CCCC3)[C](=O)[Ru]1([CH]1C=CC=C1)[C]2=O (stereo not shown) [2a, [Ru2Cp2(CO)2{μ–η^1:η^3-CH=C(1-cyclopentanol)C(=O)}]] | – | – | – | – | – | – | – | – | 91% | 23% | >1.5 | residual complex % in H2O/CH3OH ([15]; 30 min): 97%; Formal electrode potential, oxidation [17, 18]: +0.55 V; Formal electrode potential, reduction [17, 18]: –1.82 V; Formal electrode potential, oxidation ([17]; vs FeCp2 (in parentheses)): +0.11 V; Formal electrode potential, reduction ([17]; vs FeCp2 (in parentheses)): −2.26 V |
